How the values were obtained:
Format in all cases: in vivo
Spodoptera litura = assay: Pesticidal test against Spodoptera litura (cabbage leaf dip); details: foliar, 144 h, concentration 1 ppm, 2-stage larvae, examined after 6 days, 25° C., read-out: pesticidal rate
Procedure, shortened: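 Cabbage leaf pieces dipped 30 seconds in compound solution at a predetermined concentration and air-dried, then offered to second-stage larvae, five per group in two replicates. Held at 25° C. Living and dead larvae counted after 6 days.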

Plutella xylostella = assay: Pesticidal test against Plutella xylostella (cabbage leaf dip); details: foliar, 144 h, concentration 1 ppm, 2-stage larvae, examined after 6 days, 25° C., read-out: pesticidal rate
Procedure, shortened: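 Cabbage leaf pieces dipped 30 s in test solution at a predetermined concentration, air-dried, then offered to 2nd-instar larvae, five per group in duplicate. Held at 25° C; living and dead larvae counted after 6 days.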

Choristoneura magnanima = assay: Pesticidal test against Choristoneura magnanima (artificial feed dip); details: 144 h, concentration 1 ppm, 2-stage larvae, examined after 6 days, 25° C., read-out: pesticidal rate
Procedure, shortened: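 Thin artificial feed slices dipped 30 s in compound solution at a set concentration, air-dried, then offered to 2nd-stage larvae held at 25° C. Living and dead larvae counted after 6 days; five larvae per group, two replicates.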

Helicoverpa armigera = assay: Pesticidal test against Helicoverpa armigera (cabbage leaf disk dip); details: foliar, 72 h, concentration 1 ppm, 2-stage larvae, examined after 3 days, 25° C., read-out: pesticidal rate
Procedure, shortened: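 Cabbage leaf disks were dipped for 30 s in test solution at a set concentration and air-dried. Second-instar larvae were placed one per hole and held at 25 °C, with live and dead counts taken after 3 days. Five larvae per group were tested in two replicates.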

Laodelphax striatellus = assay: Pesticidal test against Laodelphax striatellus (rice seedling spray); details: 144 h, concentration 100 ppm, 3-stage larvae, examined after 6 days, 25° C., read-out: pesticidal rate
Procedure, shortened: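 Rice seedlings sprayed with 2.5 ml acetone solution of compound at a predetermined concentration, air-dried, then infested with third-stage Laodelphax striatellus larvae in capped water-containing tubes at 25 °C. Living and dead insects counted after 6 days; ten larvae per group, two replicates.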

Blattella germanica = assay: Pesticidal test against Blattella germanica (petri dish dry film); details: 24 h, concentration 100 ppm, female adults, examined after 1 day, 25° C., read-out: pesticidal rate
Experimental: Pesticidal Test against Blattella germanica
1 ml of an acetone solution in which a test compound had been prepared at a predetermined concentration was added dropwise to a petri dish having a diameter of 9 cm, and air-dried, and then the female adults of Blattella germanica were released and the petri dish was capped. They were left to stand in a thermostatic chamber at 25° C., and the numbers of the living pests and the dead pests were examined after 1 day. The test was carried out with five larvae per group in two replicates.

Adoxophyes honmai = assay: Pesticidal test against Adoxophyes honmai (artificial feed dip); details: 144 h, 2-stage larvae, examined after 6 days, 25° C., read-out: pesticidal rate; for pest or weed control at 1 ppm: concentration 1 ppm; for pest or weed control at 10 ppm: concentration 10 ppm
Procedure, shortened: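 Thin artificial feed slices dipped 30 s in test solution at a predetermined concentration, air-dried, then offered to 2nd-stage larvae. Kept at 25° C; live and dead larvae counted after 6 days. Five larvae per group, two replicates.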

Musca domestica = assay: Pesticidal test against Musca domestica (petri dish dry film); details: 24 h, concentration 100 ppm, female adults, examined after 1 day, 25° C., read-out: pesticidal rate
Procedure, shortened: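 Dry film from 1 ml acetone solution of compound at a predetermined concentration, air-dried in a 9 cm petri dish; female adult flies released and dish capped. Held at 25° C; living and dead counted after 1 day. Five insects per group, two replicates.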

N#Cc1ccc(C(=O)Nc2cccc(C(=O)Nc3c(Br)cc(C(F)(C(F)(F)F)C(F)(F)F)cc3C(F)(F)F)c2F)cc1 [6-1595]
≥ 70%: pest or weed control at 1 ppm (Spodoptera litura) | pest or weed control at 1 ppm (Plutella xylostella) | pest or weed control at 1 ppm (Choristoneura magnanima) | pest or weed control at 1 ppm (Helicoverpa armigera) | pest or weed control at 100 ppm (Laodelphax striatellus) | pest or weed control at 100 ppm (Blattella germanica)

O=C(Nc1c(I)cc(C(F)(C(F)(F)F)C(F)(F)C(F)(F)F)cc1C(F)(F)F)c1cccc(NC(=O)c2ccccc2F)c1 (centres unmarked) [6-503]
≥ 70%: pest or weed control at 1 ppm (Spodoptera litura) | pest or weed control at 1 ppm (Plutella xylostella) | pest or weed control at 1 ppm (Adoxophyes honmai) | pest or weed control at 1 ppm (Helicoverpa armigera) | pest or weed control at 100 ppm (Laodelphax striatellus) | pest or weed control at 100 ppm (Musca domestica) | pest or weed control at 100 ppm (Blattella germanica)

O=C(Nc1cccc(C(=O)Nc2c(Br)cc(C(F)(C(F)(F)F)C(F)(F)C(F)(F)F)cc2C(F)(F)F)c1)c1ccc(Cl)nc1 (centres unmarked) [6-389]
≥ 70%: pest or weed control at 1 ppm (Spodoptera litura) | pest or weed control at 1 ppm (Plutella xylostella) | pest or weed control at 10 ppm (Adoxophyes honmai) | pest or weed control at 1 ppm (Helicoverpa armigera) | pest or weed control at 100 ppm (Musca domestica) | pest or weed control at 100 ppm (Blattella germanica)

CN(C(=O)c1ccc(F)cc1)c1cccc(C(=O)Nc2c(Br)cc(C(F)(C(F)(F)F)C(F)(F)F)cc2Br)c1F [7-1107]
≥ 70%: pest or weed control at 1 ppm (Spodoptera litura) | pest or weed control at 1 ppm (Plutella xylostella) | pest or weed control at 1 ppm (Choristoneura magnanima) | pest or weed control at 1 ppm (Helicoverpa armigera) | pest or weed control at 100 ppm (Laodelphax striatellus) | pest or weed control at 100 ppm (Musca domestica) | pest or weed control at 100 ppm (Blattella germanica)

CN(C(=O)c1ccc(F)cc1)c1cccc(C(=O)Nc2c(I)cc(C(F)(C(F)(F)F)C(F)(F)C(F)(F)F)cc2C(F)(F)F)c1 (centres unmarked) [7-505]
≥ 70%: pest or weed control at 1 ppm (Spodoptera litura) | pest or weed control at 1 ppm (Plutella xylostella) | pest or weed control at 1 ppm (Adoxophyes honmai) | pest or weed control at 1 ppm (Choristoneura magnanima) | pest or weed control at 1 ppm (Helicoverpa armigera) | pest or weed control at 100 ppm (Blattella germanica)

CN(C(=O)c1ccc(C#N)cc1)c1cccc(C(=O)Nc2c(Br)cc(C(F)(C(F)(F)F)C(F)(F)F)cc2Br)c1F [7-1125]
≥ 70%: pest or weed control at 1 ppm (Spodoptera litura) | pest or weed control at 1 ppm (Plutella xylostella) | pest or weed control at 1 ppm (Choristoneura magnanima) | pest or weed control at 1 ppm (Helicoverpa armigera) | pest or weed control at 100 ppm (Laodelphax striatellus) | pest or weed control at 100 ppm (Blattella germanica)

N#Cc1ccc(C(=O)Nc2cccc(C(=O)Nc3c(I)cc(C(F)(C(F)(F)F)C(F)(F)C(F)(F)F)cc3I)c2F)cc1 (centres unmarked) [6-1359]
≥ 70%: pest or weed control at 1 ppm (Spodoptera litura) | pest or weed control at 1 ppm (Plutella xylostella) | pest or weed control at 1 ppm (Helicoverpa armigera) | pest or weed control at 100 ppm (Laodelphax striatellus) | pest or weed control at 100 ppm (Musca domestica) | pest or weed control at 100 ppm (Blattella germanica)

CN(C(=O)c1ccccc1)c1cccc(C(=O)Nc2c(I)cc(C(F)(C(F)(F)F)C(F)(F)C(F)(F)F)cc2C(F)(F)F)c1 (centres unmarked) [7-502]
≥ 70%: pest or weed control at 1 ppm (Spodoptera litura) | pest or weed control at 1 ppm (Plutella xylostella) | pest or weed control at 1 ppm (Adoxophyes honmai) | pest or weed control at 1 ppm (Choristoneura magnanima) | pest or weed control at 1 ppm (Helicoverpa armigera) | pest or weed control at 100 ppm (Blattella germanica)

O=C(Nc1c(Br)cc(C(F)(C(F)(F)F)C(F)(F)C(F)(F)F)cc1C(F)(F)F)c1cccc(NC(=O)c2ccccc2F)c1 (centres unmarked) [6-347]
≥ 70%: pest or weed control at 1 ppm (Spodoptera litura) | pest or weed control at 1 ppm (Plutella xylostella) | pest or weed control at 1 ppm (Adoxophyes honmai) | pest or weed control at 1 ppm (Helicoverpa armigera) | pest or weed control at 100 ppm (Laodelphax striatellus) | pest or weed control at 100 ppm (Musca domestica) | pest or weed control at 100 ppm (Blattella germanica)

CN(C(=O)c1ccc(Cl)nc1)c1cccc(C(=O)Nc2c(Br)cc(C(F)(C(F)(F)F)C(F)(F)C(F)(F)F)cc2C(F)(F)F)c1 (centres unmarked) [7-389]
≥ 70%: pest or weed control at 1 ppm (Spodoptera litura) | pest or weed control at 1 ppm (Plutella xylostella) | pest or weed control at 1 ppm (Choristoneura magnanima) | pest or weed control at 1 ppm (Helicoverpa armigera) | pest or weed control at 100 ppm (Laodelphax striatellus) | pest or weed control at 100 ppm (Musca domestica) | pest or weed control at 100 ppm (Blattella germanica)

N#Cc1cccc(C(=O)Nc2cccc(C(=O)Nc3c(Br)cc(C(F)(C(F)(F)F)C(F)(F)F)cc3C(F)(F)F)c2F)c1 [6-1594]
≥ 70%: pest or weed control at 1 ppm (Spodoptera litura) | pest or weed control at 1 ppm (Plutella xylostella) | pest or weed control at 1 ppm (Adoxophyes honmai) | pest or weed control at 1 ppm (Helicoverpa armigera) | pest or weed control at 100 ppm (Laodelphax striatellus) | pest or weed control at 100 ppm (Musca domestica) | pest or weed control at 100 ppm (Blattella germanica)

CN(C(=O)c1ccccc1F)c1cccc(C(=O)Nc2c(I)cc(C(F)(C(F)(F)F)C(F)(F)F)cc2C(F)(F)F)c1F [7-1731]
≥ 70%: pest or weed control at 1 ppm (Spodoptera litura) | pest or weed control at 1 ppm (Plutella xylostella) | pest or weed control at 10 ppm (Adoxophyes honmai) | pest or weed control at 1 ppm (Helicoverpa armigera) | pest or weed control at 100 ppm (Laodelphax striatellus) | pest or weed control at 100 ppm (Musca domestica) | pest or weed control at 100 ppm (Blattella germanica)

N#Cc1ccc(C(=O)Nc2cccc(C(=O)Nc3c(Br)cc(C(F)(C(F)(F)F)C(F)(F)C(F)(F)F)cc3C(F)(F)F)c2)cc1 (centres unmarked) [6-367]
≥ 70%: pest or weed control at 1 ppm (Spodoptera litura) | pest or weed control at 1 ppm (Plutella xylostella) | pest or weed control at 10 ppm (Adoxophyes honmai) | pest or weed control at 1 ppm (Choristoneura magnanima) | pest or weed control at 1 ppm (Helicoverpa armigera) | pest or weed control at 100 ppm (Blattella germanica)

CN(C(=O)c1ccc(Cl)nc1)c1cccc(C(=O)Nc2c(Br)cc(C(F)(C(F)(F)F)C(F)(F)F)cc2C(F)(F)F)c1F [7-1617]
≥ 70%: pest or weed control at 1 ppm (Spodoptera litura) | pest or weed control at 1 ppm (Plutella xylostella) | pest or weed control at 1 ppm (Choristoneura magnanima) | pest or weed control at 1 ppm (Helicoverpa armigera) | pest or weed control at 100 ppm (Laodelphax striatellus) | pest or weed control at 100 ppm (Blattella germanica)

N#Cc1ccc(C(=O)Nc2cccc(C(=O)Nc3c(I)cc(C(F)(C(F)(F)F)C(F)(F)F)cc3C(F)(F)F)c2F)cc1 [6-1751]
≥ 70%: pest or weed control at 1 ppm (Spodoptera litura) | pest or weed control at 1 ppm (Plutella xylostella) | pest or weed control at 1 ppm (Choristoneura magnanima) | pest or weed control at 1 ppm (Helicoverpa armigera) | pest or weed control at 100 ppm (Laodelphax striatellus) | pest or weed control at 100 ppm (Musca domestica) | pest or weed control at 100 ppm (Blattella germanica)

CN(C(=O)c1ccc(C#N)cc1)c1cccc(C(=O)Nc2c(Br)cc(C(F)(C(F)(F)F)C(F)(F)F)cc2C(F)(F)F)c1F [7-1595]
≥ 70%: pest or weed control at 1 ppm (Spodoptera litura) | pest or weed control at 1 ppm (Plutella xylostella) | pest or weed control at 1 ppm (Choristoneura magnanima) | pest or weed control at 1 ppm (Helicoverpa armigera) | pest or weed control at 100 ppm (Laodelphax striatellus) | pest or weed control at 100 ppm (Blattella germanica)

O=C(Nc1cccc(C(=O)Nc2c(Br)cc(C(F)(C(F)(F)F)C(F)(F)F)cc2C(F)(F)F)c1F)c1cccc(F)c1 [6-1576]
≥ 70%: pest or weed control at 1 ppm (Spodoptera litura) | pest or weed control at 1 ppm (Plutella xylostella) | pest or weed control at 1 ppm (Adoxophyes honmai) | pest or weed control at 1 ppm (Helicoverpa armigera) | pest or weed control at 100 ppm (Laodelphax striatellus) | pest or weed control at 100 ppm (Musca domestica) | pest or weed control at 100 ppm (Blattella germanica)

O=C(Nc1c(I)cc(C(F)(C(F)(F)F)C(F)(F)C(F)(F)F)cc1C(F)(F)F)c1cccc(NC(=O)c2cccnc2Cl)c1 (centres unmarked) [6-538]
≥ 70%: pest or weed control at 1 ppm (Spodoptera litura) | pest or weed control at 1 ppm (Plutella xylostella) | pest or weed control at 1 ppm (Adoxophyes honmai) | pest or weed control at 1 ppm (Helicoverpa armigera) | pest or weed control at 100 ppm (Musca domestica) | pest or weed control at 100 ppm (Blattella germanica)

Reference: patent US8686044B2, “Amide derivative, pest control agent containing the amide derivative, and use of the amide derivative” (Mitsui Chemicals Agro, Inc., priority 2008, dated 2014)
